Results reported in ChEMBL document CHEMBL1129859, “Synthesis and antibacterial activity of (1R, 5R, 6R)-2-tert-butyl-6-(1-hydroxyethyl)penem-3-carboxylic acid” (Bioorg Med Chem Lett, 1997).
≈ marks a conversion by molar mass, not a printed value.

Tests used:
Escherichia coli [1] = assay: Tested in vitro for the antibacterial activity against Escherichia coli strain EC 14; type: functional
Salmonella [2] = assay: Tested in vitro for the antibacterial activity against Salmonella sp. strain 1335; type: functional
Streptococcus pneumoniae = assay: Tested in vitro for the antibacterial activity against Streptococcus pneumoniae strain Park I; type: functional
Escherichia coli [3] = assay: Tested in vitro for the antibacterial activity against Escherichia coli strain TEM; type: functional
Providencia stuartii [4] = assay: Tested in vitro for the antibacterial activity against Providencia stuartii strain PR 33; type: functional
Serratia marcescens [5] = assay: Tested in vitro for the antibacterial activity against Serratia marcescens strain SE 3; type: functional
Staphylococcus aureus [6] = assay: Tested in vitro for the antibacterial activity against Staphylococcus aureus strain X 400; type: functional
Escherichia coli [7] = assay: Tested in vitro for the beta lactamase inhibition of Escherichia coli TEM; type: functional
Citrobacter freundii [8] = assay: Tested in vitro for the antibacterial activity against Citrobacter freundii strain CF 17; type: functional
[9] = test system: Staphylococcus epidermidis; assay: Tested in vitro for the antibacterial activity against Staphylococcus epidermidis strain 270; type: functional
Enterococcus [10] = assay: Tested in vitro for the antibacterial activity against Enterococcus sp. strain 2041; type: functional
Haemophilus influenzae [11] = assay: Tested in vitro for the antibacterial activity against Haemophilus influenzae (b-lac-) strain CL; type: functional
Providencia rettgeri = assay: Tested in vitro for the antibacterial activity against Providencia rettgeri strain C 24; type: functional
Klebsiella [12] = assay: Tested in vitro for the antibacterial activity against Klebsiella sp. strain X 26; type: functional
Enterobacter cloacae [13] = assay: Tested in vitro for the antibacterial activity against Enterobacter cloacae strain EB 5; type: functional
Salmonella [14] = assay: Tested in vitro for the antibacterial activity against Salmonella sp. strain X 514; type: functional
Shigella sonnei = assay: Tested in vitro for the antibacterial activity against Shigella sonnei strain N 9; type: functional
Staphylococcus aureus [15] = assay: Tested in vitro for the antibacterial activity against Staphylococcus aureus strain S 13 E; type: functional
Klebsiella aerogenes [16] = assay: Tested in vitro for the antibacterial activity against Enterobacter aerogenes strain EB 17; type: functional
[17] = test system: Staphylococcus epidermidis; assay: Tested in vitro for the antibacterial activity against Staphylococcus epidermidis strain 222; type: functional
Staphylococcus aureus [18] = assay: Tested in vitro for the antibacterial activity against Staphylococcus aureus strain X 1.1; type: functional
Klebsiella [19] = assay: Tested in vitro for the antibacterial activity against Klebsiella sp. strain X 68; type: functional
Streptococcus pyogenes = assay: Tested in vitro for the antibacterial activity against Streptococcus pyogenes strain C 203; type: functional
Enterobacter cloacae [20] = assay: Tested in vitro for the beta lactamase inhibition of Enterobacter cloacae; type: functional, organism-based
Morganella morganii = assay: Tested in vitro for the antibacterial activity against Morganella morganii strain PR 15; type: functional
Enterococcus [21] = assay: Tested in vitro for the antibacterial activity against Enterococcus sp. strain X 66; type: functional
Haemophilus influenzae [22] = assay: Tested in vitro for the antibacterial activity against Haemophilus influenzae (b-lac+) strain 76; type: functional
Serratia marcescens [23] = assay: Tested in vitro for the antibacterial activity against Serratia marcescens strain X 99; type: functional
Klebsiella [24] = assay: Tested in vitro for the antibacterial activity against Klebsiella sp. strain KAE; type: functional
Escherichia coli [25] = assay: Tested in vitro for the antibacterial activity against Escherichia coli strain N 10; type: functional
Acinetobacter = assay: Tested in vitro for the antibacterial activity against Acinetobacter sp. strain AC 12; type: functional
Enterobacter cloacae [26] = assay: Tested in vitro for the antibacterial activity against Enterobacter cloacae strain 265 A; type: functional
Klebsiella aerogenes [27] = assay: Tested in vitro for the antibacterial activity against Enterobacter aerogenes strain C 32; type: functional
Staphylococcus aureus [28] = assay: Tested in vitro for the antibacterial activity against Staphylococcus aureus strain V 41; type: functional
[29] = Half-life was determined; type: ADME; settings: human
Citrobacter freundii [30] = assay: Tested in vitro for the antibacterial activity against Citrobacter freundii strain CF17; type: functional
Providencia stuartii [31] = assay: […] Tested in vitro for the antibacterial activity against Providencia stuartii strain PR 33; type: functional

Compound | MIC (Escherichia coli [1]) [µg/mL] | MIC (Salmonella [2]) [µg/mL] | MIC (Streptococcus pneumoniae) [µg/mL] | MIC (Escherichia coli [3]) [µg/mL] | MIC (Serratia marcescens [5]) [µg/mL] | MIC (Staphylococcus aureus [6]) [µg/mL] | IC50 (Escherichia coli [7]) [nM] | MIC [9] [µg/mL] | MIC (Enterococcus [10]) [µg/mL] | MIC (Haemophilus influenzae [11]) [µg/mL] | MIC (Providencia rettgeri) [µg/mL] | MIC (Klebsiella [12]) [µg/mL] | MIC (Enterobacter cloacae [13]) [µg/mL] | MIC (Salmonella [14]) [µg/mL] | MIC (Shigella sonnei) [µg/mL] | MIC (Staphylococcus aureus [15]) [µg/mL] | MIC (Klebsiella aerogenes [16]) [µg/mL] | MIC [17] [µg/mL] | MIC (Staphylococcus aureus [18]) [µg/mL] | MIC (Klebsiella [19]) [µg/mL] | other results
C[C@@H](O)[C@H]1C(=O)N2C(C(=O)[O-])=C(C(C)(C)C)O[C@H]12.[K+] | 4 | 4 | 0.03 | 4 | 64 | 2 | 3000 | 4 | 16 | 0.5 | 4 | 1 | 32 | 1 | 4 | 1 | 32 | 0.25 | 0.25 | 2 | MIC (Providencia stuartii [4]): 4 µg/mL; MIC (Citrobacter freundii [8]): 16 µg/mL; MIC (Streptococcus pyogenes): 0.06 µg/mL; IC50 (Enterobacter cloacae [20]): 2 nM; MIC (Morganella morganii): 8 µg/mL; MIC (Enterococcus [21]): 2 µg/mL; MIC (Haemophilus influenzae [22]): 0.5 µg/mL; MIC (Serratia marcescens [23]): 16 µg/mL; MIC (Klebsiella [24]): 4 µg/mL; MIC (Escherichia coli [25]): 4 µg/mL; MIC (Acinetobacter): 8 µg/mL; MIC (Enterobacter cloacae [26]): 32 µg/mL; MIC (Klebsiella aerogenes [27]): 8 µg/mL; MIC (Staphylococcus aureus [28]): 1 µg/mL
C[C@@H](O)[C@H]1C(=O)N2C(C(=O)[O-])=C(C(C)(C)C)S[C@H]12.[K+] | 128 | 128 | 0.12 | 128 | 128 | 4 | 50 | 0.5 | 32 | 8 | 8 | 8 | 128 | 32 | 64 | 4 | 128 | 2 | 0.5 | 64 | half-life [29]: 16 days; MIC (Providencia stuartii [4]): 32 µg/mL; MIC (Citrobacter freundii [8]): 128 µg/mL; MIC (Streptococcus pyogenes): 0.12 µg/mL; IC50 (Enterobacter cloacae [20]): 300 nM; MIC (Morganella morganii): 32 µg/mL; MIC (Enterococcus [21]): 16 µg/mL; MIC (Haemophilus influenzae [22]): 8 µg/mL; MIC (Serratia marcescens [23]): 128 µg/mL; MIC (Klebsiella [24]): 64 µg/mL; MIC (Escherichia coli [25]): 64 µg/mL; MIC (Acinetobacter): 16 µg/mL; MIC (Enterobacter cloacae [26]): 128 µg/mL; MIC (Klebsiella aerogenes [27]): 128 µg/mL; MIC (Staphylococcus aureus [28]): 1 µg/mL
CC(C)(O/N=C(\C(=O)N[C@@H]1C(=O)N2C(C(=O)[O-])=C(C[n+]3ccccc3)CS[C@H]12)c1csc(N)n1)C(=O)O [CEFTAZIDIME] | 0.03 (≈ 0.0549 µM) | 0.25 (≈ 0.457 µM) | 0.03 (≈ 0.0549 µM) | 0.03 (≈ 0.0549 µM) | 0.06 (≈ 0.11 µM) | 64 (≈ 117 µM) |  | 16 (≈ 29.3 µM) | 16 (≈ 29.3 µM) | 0.06 (≈ 0.11 µM) | 0.03 (≈ 0.0549 µM) | 0.06 (≈ 0.11 µM) | 0.12 (≈ 0.22 µM) | 0.06 (≈ 0.11 µM) | 0.03 (≈ 0.0549 µM) | 64 (≈ 117 µM) | 0.12 (≈ 0.22 µM) | 16 (≈ 29.3 µM) | 8 (≈ 14.6 µM) | 0.12 (≈ 0.22 µM) | MIC (Citrobacter freundii [30]): 0.5 µg/mL (≈ 0.915 µM); MIC (Providencia stuartii [31]): 0.06 µg/mL (≈ 0.11 µM); MIC (Streptococcus pyogenes): 0.06 µg/mL (≈ 0.11 µM); MIC (Morganella morganii): 0.25 µg/mL (≈ 0.457 µM); MIC (Enterococcus [21]): 128 µg/mL (≈ 234 µM); MIC (Haemophilus influenzae [22]): 0.03 µg/mL (≈ 0.0549 µM); MIC (Serratia marcescens [23]): 0.12 µg/mL (≈ 0.22 µM); MIC (Klebsiella [24]): 0.5 µg/mL (≈ 0.915 µM); MIC (Escherichia coli [25]): 0.06 µg/mL (≈ 0.11 µM); MIC (Acinetobacter): 1 µg/mL (≈ 1.83 µM); MIC (Enterobacter cloacae [26]): 32 µg/mL (≈ 58.5 µM); MIC (Klebsiella aerogenes [27]): 2 µg/mL (≈ 3.66 µM); MIC (Staphylococcus aureus [28]): 8 µg/mL (≈ 14.6 µM)
O=C(O)[C@H]1/C(=C/CO)O[C@@H]2CC(=O)N21 [CLAVULANIC ACID] |  |  |  |  |  |  | 40 |  |  |  |  |  |  |  |  |  |  |  |  |  | IC50 (Enterobacter cloacae [20]): 100000 nM
